Data published in PMC11720353, “Clove Essential Oil as a Source of Antitumoral Compounds Capable of Crossing the Blood–Brain Barrier: A Focus on the Effects of β-Caryophyllene and Eugenol in a Glioblastoma Cell Line” (International Journal of Molecular Sciences, 2024).
Where two headings read alike, the source gives them in different places.

How the values were obtained:
[1] = cited from earlier work
HMC3 cells [2] = experiment: Cell cycle analysis (PI/RNase, flow cytometry); assay type: cell-based, human; conditions: EU 200 µM, BCA 125 µM, alone or in combination, 24 h
Method: (§1) Analysis of the effect of BCA and/or EU on the cell cycle was assessed with flow cytometry using propidium iodide (PI)/RNase solution, according to the manufacturer’s protocol (Immunostep, Salamanca, Spain), as previously described. HMC3 and U87 cells (30 × 10^4 cells/well) were seeded in triplicate into 6-well plates and incubated for 24 h at 37 °C and 5% CO2. Thereafter, the cells were treated either with EU (200 µM) or BCA (125 µM) alone or in combination (EU 200 µM + BCA 125 µM). After 24 h, the cells were detached and fixed in 70% ethanol for 60 min at 4 °C, washed twice with PBS, and then stained with 500 µL of PI/RNase solution. The results were acquired using CellQuest software and expressed as the calculated percentage of the cell population in each cell cycle phase (G0/G1, S and G2/M) according to the PI intensity.

U87 cells [3] = experiment: Cell cycle analysis (PI/RNase, flow cytometry); assay type: cell-based, human; conditions: EU 200 µM, 24 h
Method: as §1

HMC3 cells [4] = experiment: Inflammatory cytokines in conditioned media (Luminex/BioPlex); assay type: cell-based, human; conditions: EU 200 µM, BCA 125 µM, alone or in combination, 24 h
Method: (§2) In order to determine the impact of BCA and/or EU on inflammatory cytokines levels, cytokine expression analyses (L-6, IL-4, IL-8 and TNF-α) were performed using a customized detection panel purchased from Bio-techne (Minneapolis, MN, USA). The cells were seeded, in triplicate, into 24-well culture plates (8 × 10^4 cells/well). After 24 h, the medium was replaced and the cells were treated either with the vehicle (ethanol) or with different concentrations of EO single compounds alone (EU: 2 µM, 20 µM, 200 µM; and BCA: 1.25 µM, 12.5 µM, 125 µM) or in combination (EU 2 µM + BCA 1.25 µM; EU 20 µM + BCA 12.5 µM; and EU 200 µM + BCA 125 µM). The final concentration of ethanol in the cell medium was kept lower than 0.1%. The ethanol 0.1%-treated cells were considered the control condition. After the 24 h treatment, supernatants were collected and centrifuged at 4,000× g for 10 min, and the samples were analyzed with the BioPlex 200 instrument (BioRad®, Hercules, CA, USA) following the manufacturer’s protocol.

U87 cells [5] = experiment: as above; assay type: cell-based, human; conditions: EU 200 µM, BCA 125 µM, alone or in combination, 24 h
Method: as §2

HMC3 cells [6] = experiment: Cell death assay (Annexin V/PI, flow cytometry); assay type: cell-based, human; conditions: EU 200 µM, BCA 125 µM, alone or in combination, 24 h
Method: (§4) HMC3 and U87 cells were seeded in duplicate into 12-well plates (10 × 10^4 cells/well). After 24 h of incubation at 37 °C and 5% CO2, the medium was replaced, and the cells were treated either with EU (200 µM) or BCA (125 µM), alone and in combination (EU 200 µM + BCA 125 µM). Following the 24 h treatment, the cells were co-stained with AV-APC and PI according to the manufacturer’s protocol (Biolegend, San Diego, CA, USA). Briefly, the cells were resuspended in binding buffer (100 µL) and incubated with AV-APC solution (5 µL) and PI solution (2 µL) for 15 min at room temperature. Then, the cells were diluted in a binding buffer (400 µL). A six-parameter, four-color FACSCalibur flow cytometer (Becton Dickinson, San Jose, CA, USA) was used, and at least 10,000 events were collected by acquisition using CellQuest software (Becton Dickinson, San Jose, CA, USA). The results were analyzed with the Paint-a-Gate software and expressed in percentage (%).

U87 cells [7] = experiment: Clonogenic cell survival assay; assay type: cell-based, human; conditions: EU 200 µM, BCA 125 µM, alone or in combination, 14 days
Method: An evaluation of the antiproliferative effect via clonogenic assay on the tumoral U87 cells was performed using an adapted protocol from the previously described procedure. Briefly, U87 cells (0.8 × 10^3 cells/well) were seeded into 6-well plates and incubated for 24 h. After the incubation, based on the results obtained from the cell viability assay and synergistic score, the cells were treated either with EO single compounds diluted in ethanol alone (EU 200 µM and BCA 125 µM) or in combination for 14 days with the media being changed every 2/3 days. The cells without treatment were considered the control condition. Following the incubation, the cells were washed with PBS, fixed with paraformaldehyde (PFA) and stained with 0.1% crystal violet solution. The number of colonies was counted by microscopy, and the surviving fraction (SF) was calculated as the mean colonies/number of cells seeded.

U87 cells [8] = experiment: Cell death assay (Annexin V/PI, flow cytometry); assay type: cell-based, human; conditions: EU 200 µM, BCA 125 µM, alone or in combination, 24 h
Method: as §4

U87 cells [9] = experiment: Metabolic activity (Alamar blue) assay and HSA synergy analysis; assay type: cell-based, human; conditions: EU 2.5, 25, 200 µM or BCA 1.25, 12.5, 125 µM alone, 24-72 h
Method: To evaluate the cytotoxic/antiproliferative potential of BCA and/or EU, the U87 and HMC3 cells were seeded, in triplicate, into 48-well culture plates (4 × 10^4 cells/well). After 24 h, the medium was replaced, and the cells were treated either with the vehicle (ethanol) or with different concentrations of EO single molecules, diluted in ethanol alone ([…]; BCA: 1.25 µM, µM, 125 µM) or in combination (EU 2 µM and BCA 1.25 µM; EU 20 µM and BCA 12.5 µM; and EU 200 µM and BCA 125 µM) in order to evaluate the possible synergistic effects. The final concentration of ethanol in the cell medium was kept lower than 0.1%. Non-treated cells were considered the control condition. Metabolic activity was evaluated using a modified Alamar blue® assay, as previously described. […] After 2 h of incubation at 5% CO2 and 37 °C, the absorbance was read at 570 and 600 nm in a BioTeck (BioTek Instruments, Inc., Winooski, VT, USA). The absorbance results were obtained using the Gen5 program. The metabolic activity was then calculated by the following equation: Metabolicactivity %=A570−A600 oftreated cells/A570−A600 ofcontrol cells×100 All data were analyzed using the software GraphPad Prism v.9.00 (GraphPad Software, San Diego, CA, USA). All in vitro experiments were performed in triplicate, and the acquired results were expressed as means ± SEM. […]

HMC3 cells [10] = experiment: Quantitative real-time PCR of mRNA levels; assay type: cell-based, human; conditions: 24 h
Method: (§3) An analysis of the genes involved in angiogenesis, tumor progression and proliferation were performed. In particular, we analyzed the genes involved in the cell cycle and in three different apoptotic pathways: B-cell lymphoma-2 (BCL2), Bcl-2-like protein 1 (BCL2L1), Bcl-2 Associated X-protein (BAX), BCL2 Antagonist/Killer 1 (BAK-1) and Caspase 9 (CASP9) as the key genes of the intrinsic mitochondrial pathway; and Phosphatase and tensin homolog (PTEN), Tumor protein p53 (TP53), Murine double minute 2 (MDM2), Cyclin-dependent kinase 4 (CDK4) and Vascular endothelial growth factor A (VEGFA) mRNA levels were assessed by quantitative real-time PCR (qRT-PCR). HMC3 and U87 cells were seeded with a density of 1 × 10^6 cells per well and incubated for 24 h at 37 °C and 5% CO2. Thereafter, the cells were treated either with EU (200 μM) or BCA (125 μM) alone and in combination (EU 200 μM + BCA 125 μM). Total RNA was extracted using the TripleXtractor solution (GRISP, Lisbon, Portugal) according to the manufacturer's protocol. RNA was converted into cDNA through the […] Synthesis Supermix (GRISP, Lisbon, Portugal). Each optimized reaction was performed using […] SYBR Green Mastermix 2X with […], Lisbon, Portugal) and subjected to the amplification protocol described by the manufacturer, using a melting temperature of 60 °C. The relative gene expression was determined by the 2^-ΔΔCt method and normalized on Glyceraldehyde-3-Phosphate Dehydrogenase (GAPDH), which was the endogenous reference and relative to the untreated cells (control condition).

U87 cells [11] = experiment: Quantitative real-time PCR of mRNA levels; assay type: cell-based, human; conditions: 24 h
Method: as §3

[12] = EU 200 µM, BCA 125 µM, alone or in combination

Compound: O=C/C=C/c1ccccc1 [cinnamaldehyde]
- ability to permeate the CNS ([1]; rat, not told, po): inability to permeate the CNS

Compound: C=C(C)[C@H]1CC=C(C)CC1 [limonene]
- ability to permeate the CNS ([1]; after oral administration): inability to permeate the CNS

Compound: C=CCc1ccc(O)c(OC)c1 [EU, 4-allyl-2-methoxyphenol]
- ability to cross the blood–brain barrier ([1]; rat, in vivo): high aptitude to cross the blood–brain barrier
- effect on cell cycle (HMC3 cells [2]): no effects
- effect on cell cycle (U87 cells [3]): no significant effect
- IL-4 levels, change vs control (HMC3 cells [4]): −26%
- IL-4 levels, change vs control (U87 cells [5]): −31%
- IL-6 secretion, change vs control (U87 cells [5]): None of the treatments modulated
- IL-8 secretion, change vs control (U87 cells [5]): unaffected
- cell viability (HMC3 cells [6]): did not affect
- decrease of clonal growth / colony formation with respect to control (U87 cells [7]): −59.5%
- live (viable) cells, change with respect to control (U87 cells [8]): did not affect
- reduction in metabolic activity, single compounds (U87 cells [9]): No reduction
- PTEN mRNA expression, change vs control (HMC3 cells [10]; EU 200 µM or BCA 125 µM): +42.2%
- BAK1 mRNA expression, change vs control (HMC3 cells [10]; [12]): no effect
- BAX mRNA expression, change vs control (HMC3 cells [10]; [12]): −29.7%
- BCL2L1 mRNA expression, change vs control (HMC3 cells [10]; [12]): −34.1%
- BCL2 mRNA expression, change vs control (HMC3 cells [10]; [12]): −61.2%
- CASP9 mRNA expression, change vs control (HMC3 cells [10]; [12]): no effect
- CDK4 mRNA levels, change vs control (HMC3 cells [10]; [12]): no effects
- MDM2 mRNA expression, change vs control (HMC3 cells [10]; [12]): −61.2%
- TP53 mRNA expression, change vs control (HMC3 cells [10]; [12]): no effect
- VEGFA mRNA expression, change vs control (HMC3 cells [10]; [12]): −31.5%
- PTEN mRNA expression, change vs control (U87 cells [11]; EU 200 µM or BCA 125 µM): +86.4%
- BAK1 mRNA expression, change vs control (U87 cells [11]; [12]): +32.3%
- BAX mRNA expression, change vs control (U87 cells [11]; [12]): +50.3%
- BCL2L1 mRNA expression, change vs control (U87 cells [11]; [12]): −42.2%
- BCL2 mRNA expression, change vs control (U87 cells [11]; [12]): −45.6%
- CASP9 mRNA expression, change vs control (U87 cells [11]; [12]): no effect
- MDM2 mRNA expression, change vs control (U87 cells [11]; [12]): no effect
- TP53 mRNA expression, change vs control (U87 cells [11]; [12]): +143.6%
- VEGFA mRNA expression, change vs control (U87 cells [11]; [12]): no effect
- CDK4 mRNA levels, change vs control (U87 cells [11]; EU 200 µM, BCA 125 µM, alone or in combination, normalized to GAPDH): −49.1%
